Laboratory results: PubChem BioAssay AID208 (DTP/NCI, 2004)
Where “and” joins values, the source holds several entries; their conditions need not be identical. Equal values may be shown once. Records with an inconclusive call do not appear.

System: HT29 intrarenal xenograft, nude mice, tumor weight change
Experiment: NCI In Vivo Anticancer Drug Screen. Data for tumor model HT29;CX-1 Human Adenocarcinoma (MER+) (intrarenal inoculation) in NU/NU BALB/C (nude) mice
Settings: endpoint: mean tumor weight change, higher = larger tumour
Description: The antitumor activity of compounds was measured in mice bearing transplantable tumors. Survival or tumor size were measured and the results are expressed as the measurement made in the treated group (T) divided by the measurement made in the vehicle treated control group (C). The tumor model used in this assay is HT29;CX-1 Human Adenocarcinoma (MER+) (intrarenal inoculation) in NU/NU BALB/C (nude) mice

SMILES: COc1cc2cc(c1Cl)N(C)C(=O)C[C@H](OC(=O)[C@H](C)N(C)C(C)=O)[C@]1(C)O[C@H]1[C@H](C)[C@@H]1C[C@@](O)(NC(=O)O1)[C@H](OC)C=C/C=C(\C)C2
- T/C (dose: 25.0 micrograms/kg/injection, schedule: Q01DX010 (sc), vehicle: Klucel (hydroxypropylcellulose) (HPC)): 315 % of control
- T/C (dose: 50.0 micrograms/kg/injection, schedule: Q01DX010 (sc), vehicle: Klucel (hydroxypropylcellulose) (HPC)): 118 % of control and 310 % of control

SMILES: Cc1cnc(/C=N\NC(N)=S)c2cccc(N)c12
- T/C (dose: 125.0 mg/kg/injection, schedule: Q04DX004 (ip), vehicle: saline with Tween-80): 92 % of control

SMILES: Cc1c(N)nc(C(CC(N)=O)NCC(N)C(N)=O)nc1C(=O)NC(C(=O)NC(C)C(O)C(C)C(=O)NC(C(=O)NCCc1nc(-c2nc(C(=O)NCCCNC(C)c3ccccc3)cs2)cs1)C(C)O)C(OC1OC(CO)C(O)C(O)C1OC1OC(CO)C(O)C(OC(N)=O)C1O)c1cnc[nH]1 (stereo unspecified)
- T/C (dose: 4.0 mg/kg/injection, schedule: Q01DX010 (sc), vehicle: saline): 11 % of control
- T/C (dose: 16.0 mg/kg/injection, schedule: Q01DX010 (sc), vehicle: saline): 25 % of control

SMILES: COc1cccc2c1C(=O)c1c(O)c3c(c(O)c1C2=O)CC(O)(C(=O)CO)CC3OC1CC(N)C(O)C(C)O1 (stereo unspecified)
- T/C (dose: 37.5 mg/kg/injection, schedule: Q04DX004 (sc), vehicle: water): 32 % of control and 53 % of control
- T/C (dose: 75.0 mg/kg/injection, schedule: Q04DX004 (sc), vehicle: water): 111 % of control and 117 % of control
- T/C (dose: 300.0 mg/kg/injection, schedule: Q04DX004 (sc), vehicle: water): 55 % of control and 68 % of control

SMILES: CC1CCC(n2cnc3c(Cl)ncnc32)O1 (stereo unspecified)
- T/C (dose: 150.0 mg/kg/injection, schedule: Q04DX004 (sc), vehicle: Klucel (hydroxypropylcellulose) (HPC)): 76 % of control
- T/C (dose: 300.0 mg/kg/injection, schedule: Q04DX004 (sc), vehicle: Klucel (hydroxypropylcellulose) (HPC)): 80 % of control
- T/C (dose: 600.0 mg/kg/injection, schedule: Q04DX004 (sc), vehicle: Klucel (hydroxypropylcellulose) (HPC)): 64 % of control

SMILES: CS(=O)(=O)OCCCNCCCOS(C)(=O)=O
- T/C (dose: 75.0 mg/kg/injection, schedule: Q04DX004 (sc), vehicle: saline): 71 % of control

SMILES: CCCCCCCC(=O)OCC(=O)[C@]1(O)Cc2c(O)c3c(c(O)c2[C@@H](OC2CC(N)C(O)C(C)O2)C1)C(=O)c1c(OC)cccc1C3=O (stereo partly specified)
- T/C (dose: 2.0 mg/kg/injection, schedule: Q04DX004 (sc), vehicle: saline): 63 % of control
- T/C (dose: 4.0 mg/kg/injection, schedule: Q04DX004 (sc), vehicle: saline): 78 % of control
- T/C (dose: 8.0 mg/kg/injection, schedule: Q04DX004 (sc), vehicle: saline): 48 % of control
- T/C (dose: 16.0 mg/kg/injection, schedule: Q04DX004 (sc), vehicle: saline): 30 % of control
